Measurements from patent US6750247B2, “Sponge-derived terpenoids and methods of use” (Galileo Laboratories, Inc., priority 2001, dated 2004).
Counter-ions that a name gives are not always drawn.

Key:
neonatal cardiomyocytes = experiment: Myocyte calcium-contractility assay (cardiomyocyte beating anoxia assay); format: cell-based, rat; details: 16 hr anoxia, 2 hr reoxygenation; for Percent Activity: at dose for max. activity, Fluo-4 fluorescence
Procedure: 10× Heart Dissection Solution (HDS) contains the following components (g/l) in tissue culture grade water: NaCl, 68; HEPES, 47.6; NaH2PO4, 2; Glucose, 10; KCl, 4; MgSO4, 1, pH adjusted to 7.4. Prior to filter sterilization of diluted (1× HDS) solution, 10 mg phenol red was added to each 500 milliliters of medium. Transferrin and Bovine Insulin were obtained from Life Technologies, and resuspended at a concentration of 4 mg/ml in tissue culture grade water. DMEM-F12- DMEM/F12, powder, 1:1 containing glutamine and pyridoxine hydrochloride was purchased from Life Technologies. To one liter equivalent of the powder was added 2.43 g of sodium bicarbonate and 10 ml of 100× Penicillin/Streptomycin in 950 ml of tissue culture grade water with stirring. The pH was adjusted to 7.2 with 1M HCl and volume was adjusted to 1 liter. The solution was filter sterilized then 2.5 ml of 4 mg/ml Transferrin, 250 μl 4 mg/ml Insulin and 30.7 mg of bromodeoxyuridine were added. DMEM-F12 was also prepared with 4% FBS for pre-coating the tissue culture plates and initial suspension of the cardiomyocyte pellet. Collagenase solution-49 mg of collagenase was resuspended in 120 ml 1× HDS.
Tissue culture plasticware was pre-coated with DMEM-F12-4% FBS by incubating 50 μl per well of a 96-well plate. Two-day old rat pups were removed from their mothers and placed in a sterile container. Pups were dipped quickly into 70% alcohol, then decapitated and the body was placed in an empty sterile tissue culture dish. An incision was made starting at the neck and progressing towards the belly, cutting through the sternum. The heart was removed and placed in a tissue culture dishes containing 1× HDS. The atria were trimmed, and the remaining ventricles were placed into a separate tissue culture dish containing 1× HDS, where they were sectioned into 3-4 pieces each. Ventricles were then transferred to a sterile 250 ml glass flask and the 1× HDS was removed. Twenty milliliters of pre-warmed collagenase solution were added to the ventricles, followed by incubation at 37° C. with shaking. After 30 minutes, the collagenase solution was removed and replaced with 20 ml fresh pre-warmed collagenase. Incubation was continued for an additional 20 minutes. At the end of the incubation, any tissue chunks were allowed to settle prior to removing the collagenase (containing the isolated cardiomyocytes) from the disrupted tissue pieces. The isolated myocytes were added to a 50 ml Falcon tube containing 2 ml Fetal Bovine Serum (FBS). The remaining tissue pieces were subjected to a second digestion by adding 20 ml fresh pre-warmed collagenase and incubating as above for 20 minutes. This second digest was then centrifuged at 1000 rpm for 10 minutes in a GH 3.8 A rotor in an Allegra 6 Centrifuge (Beckman Instruments, Fullerton, Calif.). The resulting supernatant was discarded, and the cell pellet was suspended with 4 ml FBS. The resulting cell suspension was placed in the incubator at 37° C. This step was repeated several additional times to harvest additional material.
Percoll gradients were prepared by adding 2.5 ml of 10× HDS to 22.5 ml of Percoll (Life Technologies) with mixing (Percoll Stock). Top Gradient solution (11 ml Percoll Stock and 14 ml 1× HDS) and Bottom Gradient solution (13 ml Percoll Stock and 7 ml 1× HDS) were prepared. Four milliliters of the Top Gradient solution were transferred into 6×15 ml sterile Falcon tubes. Three milliliters of the Bottom Gradient solution were placed in each tube by inserting a serological pipette to the bottom of the tube and slowly adding the liquid.
All the digests (5 in total) were pooled in one 50 ml Falcon tube and centrifuged on a tabletop Allegra 6 Centrifuge (Beckman Instruments, Fullerton, Calif.) using a GH 3.8 A rotor at 1000 rpm for 10 minutes. The supernatant was discarded, and the cell pellet was resuspended in 12 ml of 1× HDS. Two milliliters of the cell suspension was added to the top of each gradient. […]

[1] = test system: primary hippocampal neuronal cells; experiment: Hippocampal anoxia-reoxygenation cell death assay; format: cell-based, mice; details: for Dose for Max. Activity / Percent Activity: 5 hr hypoxia, 20-24 hr reoxygenation; for Percent Activity: at dose for max. activity, live neurons by Cell Tracker Green; for cell viability: compared to hypoxia-reoxygenated cells
Procedure: Neurobasal medium (Life Technologies, Rockville, Md.) with 1× B27 supplement (Life Technologies), […], 25 μM L-glutaxnic acid, and 1× Penicillin/Streptomycin was prepared fresh prior to use. Hank's Basic Salt Solution (HBSS, Ca/Mg-free) was prepared by preparing 1× Hanks CMF (Gibco) supplemented with HEPES (10 mM, pH 7.3), sodium bicarbonate (0.35%), 1× Penicillin/Streptomycin, and 1 mM pyruvate. Poly-D-lysine (Sigma, St. Louis, Mo.) was prepared by filtering a 50 μg/ml solution through 0.2 μm filter tubes. Sigmacote (Sigma, St. Louis, Mo.). Plastic Culture Flasks (T75 cm^2) or 12-well cell culture plates were then treated with Poly-D-Lysine (Sigma, St. Louis, Mo.).
Pregnant female mice (E18-E19) were euthanized with CO2 prior to removal of the uterus, which was then placed in a sterile plastic petri dish. The embryos were removed from the sac, and the embryonic brains removed and immersed in cold (4° C.) Hepes Buffered Salt Solution (HBSS; Ca/Mg free; Life Technologies) in a small petri dish. Hippocampi were then removed from the brains under a dissecting microscope and were placed on a paraffin-covered dish. The meninges were stripped away and the dissected hippocampi were collected in a small petri dish in HBSS. The hippocampi were transferred to a 15-ml centrifuge tube (normally 10-12 brains per tube) filled with HBSS. The tube containing the brains was centrifuged at 1000 rpm for 2 minutes in a GH 3.8 A rotor in an Allegra Centrifuge (Beckman Instruments, Fullerton, Calif.). The supernatant was removed, 2 ml of HBSS was added to the hippocampi in the tube, and the resulting suspension was triturated 2 times each with long-tipped siliconized glass pipettes having progressively smaller apertures, starting with a pipette with a standard size opening (approximately 1.0 mm diameter), following with one having an aperture of half standard size (approximately 0.5 mm diameter), then with one having an aperture about one-half that size (0.25 mm diameter). The suspension was then centrifuged again at 1000 rpm for 2 min in a tabletop centrifuge, the supernatant was discarded, and 2 ml of Neurobasal/B27i (with antibiotics) was added to the tube. The trituration procedure described above was then repeated on this suspension.
The density of cells was determined on a small aliquot of cells using standard counting procedures and correcting for cell viability by trypan blue stain exclusion. Using this procedure, the expected yield is 3×10^5-6×10^5 cells/brain. Cells were then added to PDL-coated 12 well plates, flasks or MetTek dishes in Neurobasal/B27I at a density of about 1.5×10^6 cells (T75 flask) or about 100,000 cells/well of a 12-well plate. Plated cells were incubated at 37° C. with 5% CO2 in air atmosphere. Media was renewed after 3-4 days by replacing half of it with fresh Neurobasal/B27m medium, containing 5 μM cytosine arabinoside (AraC). Seven to eight days from the initial culture, the media was renewed again, by removing one-half or it and replacing with an equal amount of fresh Neurobasal/B27m medium (without Ara-C).
This assay was used to induce ischemia by anoxia-reoxygenation in cultured hippocampal neuronal cells. Test compounds were added to assess potency and efficacy against ischemia-induced neuronal cell injury and cell death.
Neurobasal media, NoG neurobasal media, B27 supplement and B27 Supplement minus AO were obtained from Life Technologies. Neurobasal/B27 medium was prepared with 2× B27 minus AO supplement, 0.5 mM L-glutamine and 0.25× penicillin/streptomycin. Cell Tracker Green was obtained from Molecular Probes and a fresh 5 μM solution was prepared from 10 mM stock just before use. NoG-Neurobasal contains NoG neurobasal medium plus 0.5 mM glucose, 0.1 mM L-glutamine and 0.25× Penicillin/Streptomycin. Primary hippocampal neuronal cells were prepared according to the methods described above and were cultured in poly-D-lysine coated 12 well plates for 10-11 days prior to use. […]

[2] = target: T1, 15-human lipoxygenase (15-HLO) (Homo sapiens, UniProt P16050); experiment: 15-human lipoxygenase (15-HLO) inhibition assay; format: biochemical; details: 3 μM linoleic acid, pH 7.5, approx. 22° C.
T1 construct: made in house
T1 sequence (P16050 1-662): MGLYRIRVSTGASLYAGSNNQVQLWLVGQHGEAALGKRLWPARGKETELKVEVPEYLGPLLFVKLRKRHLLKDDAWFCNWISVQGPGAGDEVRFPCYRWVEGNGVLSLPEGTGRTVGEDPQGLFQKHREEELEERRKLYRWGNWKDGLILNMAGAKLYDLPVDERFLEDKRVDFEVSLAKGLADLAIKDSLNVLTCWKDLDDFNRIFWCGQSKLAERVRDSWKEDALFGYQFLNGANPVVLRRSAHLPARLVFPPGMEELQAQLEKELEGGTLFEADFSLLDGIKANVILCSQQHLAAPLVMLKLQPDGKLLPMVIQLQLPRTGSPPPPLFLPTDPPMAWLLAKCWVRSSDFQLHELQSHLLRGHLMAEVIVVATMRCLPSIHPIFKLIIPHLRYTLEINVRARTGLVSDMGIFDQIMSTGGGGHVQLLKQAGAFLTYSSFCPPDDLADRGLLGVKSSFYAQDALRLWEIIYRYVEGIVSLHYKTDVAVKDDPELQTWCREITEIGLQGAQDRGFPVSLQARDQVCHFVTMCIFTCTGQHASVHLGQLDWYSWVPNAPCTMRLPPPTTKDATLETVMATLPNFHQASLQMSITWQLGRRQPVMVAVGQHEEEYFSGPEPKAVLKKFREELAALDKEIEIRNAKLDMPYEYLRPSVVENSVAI
Procedure: 15-human lipoxygenase (15-HLO) was expressed and purified as described by Holman et al., J. Am. Chem. Soc. […] 15-HLO enzyme activity was determined by direct measurement of the product formation of a 3 μM linoleic acid solution by monitoring the increase of absorbance at 234 nm in 25 mM Hepes (pH 7.5), 0.2% (g/L) cholic acid. All reactions were performed in 2 ml of buffer (approx. 200 nM 15-HLO) under constant stirring at approximately 22° C. IC50 values were determined by measuring the enzymatic rate at a variety of inhibitor concentrations (depending upon inhibitor potency) and plotting their corresponding values versus inhibitor concentration. The corresponding data was fit to a simple saturation curve and the inhibitor concentration at 50% activity was determined. The subject inhibitors used in the assay were dissolved in MeOH at a concentration of approximately 25 mg/ml.

SMILES	Percent Activity (neonatal cardiomyocytes)	Dose for Max. Activity [1] [µg/mL]	Percent Activity [1]	cell viability [1]	Dose for Max. Activity (neonatal cardiomyocytes) [µg/mL]	cell viability (neonatal cardiomyocytes)	IC50 [2] [nM]
CC(C)=CCC/C(C)=C/CCC1=CC(=O)OC1O (racemic) [Dictyodendrillin B (11), 4-(4,8-dimethyl-nona-3,7-dienyl)-5-hydroxy-5H-furan-2-one]	No activity at 100 μg/mL	0.1	56%	increased cell viability	–	–	–
CC(C)=CCC/C(C)=C/CCC1=CC(O)OC1=O (racemic) [Dictyodendrillin C (12), 3-(4,8-dimethyl-nona-3,7-dienyl)-5-hydroxy-5H-furan-2-one]	46%	–	–	–	100	increased cell viability	–
CC(C)=CCC[C@@]1(C)CCC[C@]2(C)[C@@H](Cc3cc(C(=O)O)ccc3O)C(C)=CC[C@@H]12 [(−)-jaspic acid (4), 4-hydroxy-3-[2,5,8a-trimethyl-5-(4-methyl-pent-3-enyl)-1,4,4a,5,6,7,8,8a-octahydro-naphthalen-1-ylmethyl]-benzoic acid]	59%	1	63%	increased cell viability	3	increased cell viability	–
CC1CCC2C(=CCCC2(C)C)C1(C)CCC(CO)CCCc1ccoc1 (centres unmarked) [Halisulfate 7 alcohol (8), 5-furan-3-yl-2-[2-(1,2,5,5-tetramethyl-1,2,3,4,4a,5,6,7-octahydro-naphthalen-1-yl)-ethyl]-pentan-1-ol]	No activity at 75 μg/mL	–	No activity at 10 μg/mL	–	–	–	–
CC(=O)O[C@@H]1OC=C2[C@@H](OC(C)=O)C[C@H]3[C@]4(C)CC[C@@H]5C([C@H](C)CCC5(C)C)[C@H]4C[C@@H](O)[C@]3(C)[C@H]21 (some centres unmarked) [Heteronemin (13), 24,25-epoxy-17(24)-scalarene-12-ol-16,25-diacetate]	No activity at 100 μg/mL	0.1	21%	increased cell viability	–	–	–
CCCCCCCC/C=C\CCCCCCCCOS(=O)(=O)O [oleyl sulfate, reference compound]	–	–	–	–	–	–	400
